According to patent US11925630B1, “6′-(2-bromophenyl)-2′-methoxy-3,4′-bipyridine-3′-carbonitrile as an antioxidant compound” (KING FAISAL UNIVERSITY, priority 2023, dated 2024):

Test: DPPH radical scavenging antioxidant test
Type: biochemical
Settings: 517 nm; for Inhibition (radical scavenging inhibition): 0.2 mL DPPH (0.75 mM), compound 3 μM in ethanol, 30 minutes in the dark
Experimental: The antioxidant activity of 6′-(2-bromophenyl)-2′-methoxy-3,4′-bipyridine-3′-carbonitrile was investigated by 2,2-diphenyl-1-picrylhydrazyl (DPPH) in vitro tests that employ vitamin C as the positive control.
The antioxidant properties of the 6′-(2-bromophenyl)-2′-methoxy-3,4′-bipyridine-3′-carbonitrile compound were studied by adding 0.2 mL DPPH (0.75 mM)) to 6′-(2-bromophenyl)-2′-methoxy-3,4′-bipyridine-3′-carbonitrile (3 μM) (4) in ethanol. After 30 minutes of incubation in the dark, the absorbance was read against a blank at 517 nm. Ascorbic acid (vitamin C) was used as standard antioxidants (positive control). A blank sample was prepared by 0.2 mL of DPPH in 3 mL ethanol. A negative control sample was run using ethanol instead of the sample. The radical scavenging inhibition was calculated using the following equation: […]
The antioxidant activity for the synthesized compound is listed in Table 1, using Vitamin C as a reference.

Row | SMILES | Inhibition (radical scavenging inhibition) [%] | antioxidant potential compared to vitamin C (in words) (DPPH in vitro test, vitamin C as positive control)
1 | COc1nc(-c2ccccc2Br)cc(-c2cccnc2)c1C#N [Product 4, 6′-(2-bromophenyl)-2′-methoxy-3,4′-bipyridine-3′-carbonitrile] | 50 | high potential as an antioxidant
2 | O=C1O[C@H]([C@@H](O)CO)C(O)=C1O [vit c, Ascorbic acid, reference compound] | 74 | –
